The values below come from patent US20030186817A1, “SUBSTITUTED 2,4-DIAMINO-1,3,5-TRIAZINES, PROCESSES FOR THEIR PREPARATION AND THEIR USE AS HERBICIDES AND PLANT GROWTH REGULATORS” (priority 1998, published 2003).

The test system of assay [1] is Stellaria media, Amaranthus retroflexus, Sinapis avreuse, Avena fatura, Lolium multiflorum and Setaria viridis. Nature of the assay: Post-emergence action against weeds (greenhouse pot test, visual rating). It is filed as in vivo. Conditions: three-leaf stage, application rate of 3.0 kg or less of active substance per hectare, 3 to 4 weeks in greenhouse. As to the method: Seeds of mono- and dicotyledonous weeds are placed in sandy loam soil in cardboard pots, covered with soil and cultivated in a greenhouse under good growth conditions. Two to three weeks after sowing, the test plants are treated at the three-leaf stage. The novel compounds, formulated as wettable powders or emulsion concentrates, are sprayed in various dosages onto the green parts of the plant at an application rate of from 600 to 8001 of water/ha (converted), and, after the test plants have remained in the greenhouse for 3 to 4 weeks under optimum growth conditions, the action of the preparations is rated visually by comparison with untreated controls. The novel compositions also have good post-emergence herbicidal activity against a broad spectrum of economically important weed grasses and broad-leaved weeds.

Assay [2] has the same test system. Kind of assay: Pre-emergence action against weeds (greenhouse pot test, visual rating). Conditions: application rate of 3.0 kg or less of active substance per hectare, trial period of 3 to 4 weeks. The class given is in vivo. The text has this: Seeds of mono- and dicotyledonous weed plants are placed in sandy loam soil in cardboard pots and covered with soil. The novel compounds, formulated as wettable powders or emulsion concentrates, are then applied to the surface of the soil cover in the form of an aqueous suspension or emulsion at an application rate of from 600 to 800 l of water/ha (converted), in various dosages. After the treatment, the pots are placed in a greenhouse and kept under good growth conditions for the weeds. After the test plants have emerged after a trial period of 3 to 4 weeks, the damage to the plants or the negative effect on emergence is rated visually by comparison with untreated controls. As shown by the test results, the novel compounds have good herbicidal pre-emergence activity against a broad spectrum of weed grasses and broad-leaved weeds.

In the case of `Cc1cccc(CNC(=O)C(C)Nc2nc(N)nc(C(C)C)n2)c1` (stereo not shown) [Example 1005], the “herbicidal activity post-emergence (rated visually)” value (“herbicidal activity post-emergence” below) in assay [1] was “good and in most cases very good herbicidal activity”. Moreover, the “herbicidal activity pre-emergence (damage to the plants or negative effect on emergence, rated visually)” value (“herbicidal activity pre-emergence” below) in assay [2] was “good and in most cases very good herbicidal activity”. In the case of `Cc1cccc(CNC(=O)C(C)Nc2nc(N)nc(C(C)(C)F)n2)c1` (stereo not shown) [Example 926], the “herbicidal activity post-emergence” value in assay [1] is “good and in most cases very good herbicidal activity”. In addition, in assay [2], the “herbicidal activity pre-emergence” value is “good and in most cases very good herbicidal activity”. With `CCC(COCCOc1cccc(Cl)c1)Nc1nc(N)nc(C(C)(C)F)n1` (stereo not shown) [Example 1364], in assay [1], the “herbicidal activity post-emergence” value is “good and in most cases very good herbicidal activity”. In addition, the “herbicidal activity pre-emergence” value in assay [2] was “good and in most cases very good herbicidal activity”. With `CC(CCCCOc1ccccc1)Nc1nc(N)nc(C(F)(F)C(F)F)n1` (stereo not shown) [Example 696], the “herbicidal activity post-emergence” value in assay [1] was “good and in most cases very good herbicidal activity”. Moreover, the “herbicidal activity pre-emergence” value in assay [2] is “good and in most cases very good herbicidal activity”. `CCCc1nc(N)nc(NC(CC)CCCCOc2ccccc2)n1` (stereo not shown) [Example 618]: in assay [1], the “herbicidal activity post-emergence” value was “good and in most cases very good herbicidal activity”. Also, the “herbicidal activity pre-emergence” value in assay [2] was “good and in most cases very good herbicidal activity”.

`CC(C)c1nc(N)nc(NC(CCCOc2ccccc2)C2CC2)n1` (stereo not shown) [Example 554]: the “herbicidal activity post-emergence” value in assay [1] is “good and in most cases very good herbicidal activity”. In assay [2], the “herbicidal activity pre-emergence” value is “good and in most cases very good herbicidal activity”. Turning to `Cc1cc(C)cc(OCCC(C)Nc2nc(N)nc(C(C)C)n2)c1` (stereo not shown) [Example 339], the “herbicidal activity pre-emergence” value in assay [2] is “good and in most cases very good herbicidal activity”. Take `CCC(COCCOc1ccccc1)Nc1nc(N)nc(C(C)(C)F)n1` (stereo not shown) [Example 1344]: the “herbicidal activity post-emergence” value in assay [1] is “good and in most cases very good herbicidal activity”. The “herbicidal activity pre-emergence” value in assay [2] was “good and in most cases very good herbicidal activity”. Consider `Cc1cc(C)cc(CON=CCNc2nc(N)nc(C(C)C)n2)c1` [Example 1251], for which the “herbicidal activity post-emergence” value in assay [1] is “good and in most cases very good herbicidal activity”. In assay [2], the “herbicidal activity pre-emergence” value is “good and in most cases very good herbicidal activity”. Turning to `CC(C)(F)c1nc(N)nc(NCC=NOCc2ccccc2)n1` [Example 1252], in assay [1], the “herbicidal activity post-emergence” value is “good and in most cases very good herbicidal activity”. Further, the “herbicidal activity pre-emergence” value in assay [2] was “good and in most cases very good herbicidal activity”. Consider `CC(COCc1cccc(Br)c1)Nc1nc(N)nc(C(C)(C)F)n1` (stereo not shown) [Example 76], for which, in assay [2], the “herbicidal activity pre-emergence” value was “good and in most cases very good herbicidal activity”. As to `CCC(COC(=O)c1ccc(F)cc1Cl)Nc1nc(N)nc(C(C)C)n1` (stereo not shown) [Example 23], the “herbicidal activity post-emergence” value in assay [1] was “good and in most cases very good herbicidal activity”. As to `Cc1cccc(OCCCC(C)Nc2nc(N)nc(C(C)F)n2)c1` (stereo not shown) [Example 532], the “herbicidal activity post-emergence” value in assay [1] is “good and in most cases very good herbicidal activity”. Moreover, in assay [2], the “herbicidal activity pre-emergence” value was “good and in most cases very good herbicidal activity”.

On to `Cc1cccc(OCCCC(C)Nc2nc(N)nc(C(C)(C)F)n2)c1` (stereo not shown) [Example 502], for which the “herbicidal activity post-emergence” value in assay [1] was “good and in most cases very good herbicidal activity”. The “herbicidal activity pre-emergence” value in assay [2] is “good and in most cases very good herbicidal activity”. For `CC(CCOc1cc(F)cc(F)c1)Nc1nc(N)nc(C(F)(F)C(F)F)n1` (stereo not shown) [Example 297], the “herbicidal activity post-emergence” value in assay [1] is “good and in most cases very good herbicidal activity”. In assay [2], the “herbicidal activity pre-emergence” value is “good and in most cases very good herbicidal activity”. As for `Cc1cc(C)cc(OCCC(C)Nc2nc(N)nc(C(F)(F)C(F)F)n2)c1` (stereo not shown) [Example 329], the “herbicidal activity pre-emergence” value in assay [2] is “good and in most cases very good herbicidal activity”. For `CC(C)(F)c1nc(N)nc(NC(CCCCOc2ccccc2)C2CC2)n1` (stereo not shown) [Example 636], in assay [1], the “herbicidal activity post-emergence” value is “good and in most cases very good herbicidal activity”. Moreover, the “herbicidal activity pre-emergence” value in assay [2] was “good and in most cases very good herbicidal activity”. On to `CCCc1nc(N)nc(NC(C)COCCOc2ccccc2)n1` (stereo not shown) [Example 1404], for which the “herbicidal activity post-emergence” value in assay [1] is “good and in most cases very good herbicidal activity”. In addition, the “herbicidal activity pre-emergence” value in assay [2] is “good and in most cases very good herbicidal activity”. As for `CCC(COCCOc1ccccc1)Nc1nc(N)nc(C(C)F)n1` (stereo not shown) [Example 1346], the “herbicidal activity post-emergence” value in assay [1] was “good and in most cases very good herbicidal activity”. Also, the “herbicidal activity pre-emergence” value in assay [2] was “good and in most cases very good herbicidal activity”. For the compound `CCC(CCCOc1cccc(C)c1)Nc1nc(N)nc(C(C)C)n1` (stereo not shown) [Example 553], the “herbicidal activity post-emergence” value in assay [1] is “good and in most cases very good herbicidal activity”. In addition, the “herbicidal activity pre-emergence” value in assay [2] is “good and in most cases very good herbicidal activity”. Turning to `CC(C)(F)c1nc(N)nc(NC2CCCCC2COc2ccccc2)n1` (stereo not shown) [Example 869], the “herbicidal activity post-emergence” value in assay [1] was “good and in most cases very good herbicidal activity”. In assay [2], the “herbicidal activity pre-emergence” value was “good and in most cases very good herbicidal activity”. `CC(F)c1nc(N)nc(NC(CCCCOc2ccccc2)C2CC2)n1` (stereo not shown) [Example 681]: the “herbicidal activity post-emergence” value in assay [1] is “good and in most cases very good herbicidal activity”. For the same compound, the “herbicidal activity pre-emergence” value in assay [2] is “good and in most cases very good herbicidal activity”. Regarding `CC(C)c1nc(N)nc(NCCOC(=O)c2cccc(C(F)(F)F)c2)n1` [Example 80], the “herbicidal activity post-emergence” value in assay [1] was “good and in most cases very good herbicidal activity”. `CC(F)c1nc(N)nc(NCC=NOCc2ccccc2)n1` (stereo not shown) [Example 1307]: the “herbicidal activity post-emergence” value in assay [1] is “good and in most cases very good herbicidal activity”. In addition, the “herbicidal activity pre-emergence” value in assay [2] was “good and in most cases very good herbicidal activity”.

Regarding `CC(COC(=O)c1cccc(C(F)(F)F)c1)Nc1nc(N)nc(C(C)C)n1` (stereo not shown) [Example 78], the “herbicidal activity post-emergence” value in assay [1] is “good and in most cases very good herbicidal activity”. Moreover, the “herbicidal activity pre-emergence” value in assay [2] was “good and in most cases very good herbicidal activity”. Turning to `CCC(CCOc1cc(F)cc(F)c1)Nc1nc(N)nc(C(C)C)n1` (stereo not shown) [Example 305], the “herbicidal activity post-emergence” value in assay [1] was “good and in most cases very good herbicidal activity”. The “herbicidal activity pre-emergence” value in assay [2] was “good and in most cases very good herbicidal activity”.

Turning to `CC(F)c1nc(N)nc(NCC(=O)NCc2ccccc2)n1` (stereo not shown) [Example 930], the “herbicidal activity post-emergence” value in assay [1] is “good and in most cases very good herbicidal activity”. In addition, the “herbicidal activity pre-emergence” value in assay [2] is “good and in most cases very good herbicidal activity”. In the case of `Cc1cc(C)cc(COCC(C)Nc2nc(N)nc(C(C)(C)F)n2)c1` (stereo not shown) [Example 64], the “herbicidal activity pre-emergence” value in assay [2] was “good and in most cases very good herbicidal activity”. Regarding `CC(C)c1nc(N)nc(NCCOC(=O)c2ccccc2Cl)n1` [Example 20], the “herbicidal activity post-emergence” value in assay [1] is “good and in most cases very good herbicidal activity”.

Turning to `Cc1ccccc1C(=O)OCCNc1nc(N)nc(C(C)C)n1` [Example 43], the “herbicidal activity post-emergence” value in assay [1] is “good and in most cases very good herbicidal activity”.

As to `CC(COCc1ccc(Cl)cc1)Nc1nc(N)nc(C(C)(C)F)n1` (stereo not shown) [Example 167], the “herbicidal activity pre-emergence” value in assay [2] was “good and in most cases very good herbicidal activity”. `CCCCc1ccc(C(=O)OCC(C)Nc2nc(N)nc(C(C)C)n2)cc1` (stereo not shown) [Example 184]: in assay [1], the “herbicidal activity post-emergence” value is “good and in most cases very good herbicidal activity”. Regarding `Cc1cc(C)cc(OCCC(C)Nc2nc(N)nc(C(C)(C)F)n2)c1` (stereo not shown) [Example 282], the “herbicidal activity pre-emergence” value in assay [2] is “good and in most cases very good herbicidal activity”.
